Consider two substances from patent US6472141B2, “Kinase assays using polycations” (Caliper Technologies Corp., priority 1999, dated 2002).

What all share (type): binding
The subject of one series is DNA target 192. As to the kind of experiment: PNA/DNA hybridization detected by fluorescence polarization, complementary target. The source says: (§1) A fluorescein-labeled peptide nucleic acid molecule 202 was used in hybridization experiments with the DNA targets 192 and 182. PNAs are generally commercially available from the Applied Biosystems Division of the Perkin-Elmer Corporation (Foster City, Calif.). The sequence of these molecules is illustrated below. In the case of the PNA molecule, the given sequence illustrates the analogous sequence of a DNA molecule. The sequences of the three molecules are as follows:
(§2) DNA sequence 192 contains 13 bases (shown in bold) that are fully complementary to the PNA probe 202, whereas 182 is a non-complementary oligonucleotide.
(§3) A solution containing 1 μM of PNA 202 in 50 mM HEPES pH 7.5 was mixed with either 5 μM of 192 or 5 μM of 182. The mixtures were left at room temperature for about 10 min. and then placed in the cuvette of a fluorimeter equipped to measure fluorescence polarization. The measurements were carried out using 490 nm for excitation and 520 nm for detection of fluorescence emission. The fluorescence polarization values were recorded first in the absence and then in the presence of poly-L-Lysine hydrobromide, having a molecular weight of approximately 70-100 kD (Sigma Chemicals). The poly-L-Lysine was added from a stock solution in water (approx. 440 μM). The final concentrations of the poly Lysine were 4.4 and 8.8 μM.
A general note: In fluorescence polarisation assays a small probe gives low polarisation when free and higher when bound to something large.

A further series deals with DNA target 182. Description: PNA/DNA hybridization detected by fluorescence polarization, non-complementary target.
Source text: as §1, §2, §3

A further series concerns DNA 244. Description: Single nucleotide substitution detection by fluorescence polarization of PNA probe. The settings on record: 250 nM probe, about 3 μM poly-L-Lysine, 50 mM HEPES pH 7.5, 100 mM NaCl. The text has this:
The assay methods were employed to detect differential hybridization of a nucleic acid probe to a perfectly complementary target sequence and a target sequence incorporating a single base variation, e.g., a single nucleotide polymorphism (SNP). In particular, a fluoresceinated PNA probe having a sequence complementary to a subsequence of a target sequence was used to probe the target including the subsequence and a target in which an interior base of the subsequence was substituted for a different base.
The 5′ to 3′ sequences of the PNA probe (PNA 7637)(SEQ ID NO:4), the target DNA sequence (DNA 244) (SEQ. ID NO.5) and single base mismatch target DNA sequence (DNA 245) (SEQ. ID NO.6) were as follows:
The PNA probe 7637 was used at a final concentration of 250 nM, in a reaction volume of 400 μl. The buffer used was 50 mM HEPES pH 7.5, 100 mM NaCl. The solution also contained poly-L-Lysine at about 3 μM. One μl aliquots of the DNA targets 244 and 245 were added iteratively to the PNA solution and the fluorescence polarization (excitation 490, emission 520 nm) was recorded after the addition of each aliquot. The data from this experiment is illustrated in FIG. 22. […] As can also be seen, hybridization plateaued at approximately a […] of target sequence in the perfectly complementary example.

{Fl-O} = fluorescein attached through an O linker; {Fluorescein} = fluorescein label

On to “5′Fl-O-GTCAAATACTCCA (all peptide nucleic acid (PNA), 5' {Fl-O}) [compound 202, ID NO.1]”, for which the polarization value entry with DNA target 192 (202 hybrid with complementary 192, in the absence of poly-L-Lysine) is “about 100 mP”; in the series on DNA target 192 (202 hybrid with complementary 192, in the presence of poly-L-Lysine), 229 mP; with DNA target 182 (1 μM 202 with 5 μM non-complementary 182, without poly-L-Lysine), 86 mP; in the series with DNA target 182 (202 with non-complementary 182, in the presence of poly-L-Lysine), 140 mnP.

In the case of “Fluorescein-CCTGTAGCA (all peptide nucleic acid (PNA), 5' {Fluorescein}) [PNA probe 7637]”, in the series on DNA 244, the “fluorescence polarization, perfectly complementary target vs single base mismatch target (DNA 245)” value is on record as “substantially higher levels of fluorescence polarization”.
